# Laboratory results published in paper PMC6476959, “Novel 3,4-Dihydroisocoumarins Inhibit Human P-gp and BCRP in Multidrug Resistant Tumors and Demonstrate Substrate Inhibition of Yeast Pdr5” (Frontiers in Pharmacology, 2019).
# pIC50: −log10 of the molar value.
# Key:
# [1] = Solubility observation in transporter assays; format: physicochemical; conditions: could not be employed at 50 μM
# HCT-15 cells = test: CellTiter-Glo cell viability assay (cytotoxicity), HCT-15; format: cell-based; conditions: Homo sapiens, 48 h, P-gp expressing, mean ± SEM
# Experimental: (§1) The human lung adenocarcinoma cell line A549 was cultured in DMEM medium supplemented with 10% fetal bovine serum (FBS), 100 U/mL penicillin and 100 μg/mL streptomycin. P-gp-expressing human colon adenocarcinoma cells HCT-15 were cultured in RPMI 1640 medium supplemented with 10% FBS, 100 U/mL penicillin and 100 μg/mL streptomycin. BCRP-expressing MCF-7/MX human breast adenocarcinoma cells were cultured in DMEM medium supplemented with 10% FBS, 100 U/mL penicillin and 100 μg/mL streptomycin. MRP1-expressing H69AR human small cell lung cancer cells were cultured in RPMI 1640 medium (ATCC modification) supplemented with 20% FBS, 100 U/mL penicillin and 100 μg/mL streptomycin. All cancer cell lines employed have been systematically characterized regarding their respective ABC transporter expression profile ([Sachs et al., 2019]).
# (§2) Cytotoxic activity of test compounds was analyzed after 48 h using the CellTiter-Glo Luminescent Cell Viability Assay published previously ([Weber et al., 2017]) in 384-well plates with the following cell densities: A549, MCF-7/MX: 2 × 10^3 cells/well; HCT-15: 3 × 10^3 cells/well; H69AR: 5 × 10^3 cells/well. Pipetting was conducted with the CyBi-Well 96-channel simultaneous pipettor (Analytik Jena AG, Jena, Germany). For generation of dose-response curves and calculation of IC50 values, the four-parameter logistic model was applied.
# A549 cells = test: CellTiter-Glo cell viability assay (cytotoxicity), A549; format: cell-based, human; conditions: Homo sapiens, A549; 48 h, mean ± SEM
# Experimental: as §1, §2
# Pdr5 = target: T1, Pdr5 (Saccharomyces cerevisiae, UniProt P33302); test: Pdr5 ATPase assay (oligomycin-sensitive) in plasma membrane preparations; format: biochemical; conditions: highest concentrations (10 mM), in comparison to Pdr5 WT in the absence of any compound
# T1 construct: effect on (A) the transport activity of Pdr5 WT and (B) their effect on the ATPase activity; made in house; host or cells: S. cerevisiae YRE1001 (pdr1-3 background), isolated plasma membranes
# Experimental: Saccharomyces cerevisiae cells expressing Pdr5 WT or the E1036Q (EQ) mutant were cultured to an OD600 of 1.5 in YPD-media at 25°C. The nitrogen source was replenished by addition of a 10th volume of 5x YP (50 g/l yeast extract, 100 g/l peptone). The cells were grown to an OD of 3.5 and harvested (5000 ×g at 4°C for 15 min). The isolation of Pdr5 containing PMs was performed as described ([Kolaczkowski et al., 1996]; [Ernst et al., 2008]).
# Oligomycin (OM)-sensitive ATPase activity was measured from 0.8 μg PM containing Pdr5 incubated with 2 mM ATP, 5 mM MgCl2 in 270 mM TRIS-glycine buffer (pH 9.5) and 2.5 μl of the test compounds or DMSO as a control in a total volume of 100 μl. To reduce the background activities, 0.2 mM ammonium molybdate, 10 mM NaN3 and 50 mM KNO3, respectively, were added ([Dufour et al., 1988]; [Goffeau and Dufour, 1988]). In a second assay, OM (20 μg/ml) was added to an otherwise identical setup. After incubation at 30°C for 20 min, the reaction was stopped by adding 25 μl of the reaction to 175 μl 40 mM H2SO4. The amount of released inorganic phosphate was determined by a colometric assay in 96-well plates ([Goffeau and Dufour, 1988]; [Decottignies et al., 1994]; [Wada et al., 2002]). The difference of both assays ( ± OM) corresponds to the specific ATPase activity of Pdr5 ([Ernst et al., 2008]).
# MCF-7/MX cells = test: CellTiter-Glo cell viability assay (cytotoxicity), MCF-7/MX; format: cell-based; conditions: Homo sapiens, MCF7/MX; 48 h, BCRP-expressing, mean ± SEM
# Experimental: as §1, §2
# BCRP = target: T2, BCRP (Homo sapiens, UniProt Q9UNQ0); test: BCRP transport assay (Hoechst 33342) in MCF-7/MX cells; format: cell-based
# T2 construct: endogenous in cells; host or cells: MCF-7/MX human breast adenocarcinoma cells (mitoxantrone-selected)
# T2 sequence (Q9UNQ0 1-655): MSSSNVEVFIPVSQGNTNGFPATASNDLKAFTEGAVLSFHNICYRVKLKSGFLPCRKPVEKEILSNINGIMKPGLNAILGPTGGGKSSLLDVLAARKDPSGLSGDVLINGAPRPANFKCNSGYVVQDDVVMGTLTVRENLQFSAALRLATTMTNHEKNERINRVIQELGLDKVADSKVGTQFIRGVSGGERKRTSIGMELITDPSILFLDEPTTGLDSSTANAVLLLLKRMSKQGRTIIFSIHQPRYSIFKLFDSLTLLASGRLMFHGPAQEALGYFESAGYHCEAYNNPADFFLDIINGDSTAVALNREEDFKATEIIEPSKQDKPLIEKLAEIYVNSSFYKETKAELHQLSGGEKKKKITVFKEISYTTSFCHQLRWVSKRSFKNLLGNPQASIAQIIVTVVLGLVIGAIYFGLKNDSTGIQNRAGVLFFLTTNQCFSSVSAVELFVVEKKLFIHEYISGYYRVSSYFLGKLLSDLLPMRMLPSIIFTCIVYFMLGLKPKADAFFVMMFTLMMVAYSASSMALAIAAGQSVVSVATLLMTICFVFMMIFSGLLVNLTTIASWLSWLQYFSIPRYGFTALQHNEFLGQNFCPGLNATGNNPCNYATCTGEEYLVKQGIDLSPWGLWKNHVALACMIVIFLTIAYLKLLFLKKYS
# Experimental: Breast cancer resistance protein transport activity was determined in the BCRP-expressing MCF-7/MX cell line. Hoechst 33342 was applied as transporter substrate and 1 μM Ko143 as positive control or 0.5% DMSO as negative control and the assay was performed according to the P-gp assay. Fluorescence was measured at an excitation wavelength of 355 nm and emission wavelength of 460 nm. The transport activity of BCRP was analyzed by determining the plateau of the fluorescence-time curve by using non-linear regression (one-phase exponential fit). Normalization of the data to Ko143 (100% inhibition) and DMSO (0% inhibition) was performed.
# H69AR cells = test: CellTiter-Glo cell viability assay (cytotoxicity), H69AR; format: cell-based; conditions: Homo sapiens, 48 h, MRP1-expressing, mean ± SEM
# Experimental: as §1, §2
# P-gp = target: T3, P-gp (Homo sapiens, UniProt P08183); test: P-gp transport assay (calcein-AM) in HCT-15 cells; format: cell-based
# T3 construct: endogenous in cells; host or cells: HCT-15 human colon adenocarcinoma cells
# Experimental: The transport of calcein-AM by P-gp and its modulation by test compounds was analyzed in the P-gp-expressing HCT-15 cell line. 5 × 10^4 cells were seeded in black 96-well plates and incubated at 37°C and 5% CO2 for 24 h. The culture medium was removed and replaced by Hank’s balanced salt solution supplemented with 10 mM HEPES. Test compounds, 2.5 μM PSC833 (positive control) or 0.5% DMSO (negative control) were added in triplicates and incubated for 30 min at 37°C and 5% CO2. The substrate calcein-AM was added (final concentration 0.5 μM) and the fluorescence (excitation 485 nm, emission 520 nm) was measured over 3 h with the Infinite m1000 pro microplate reader (Tecan Group AG, Männedorf, Switzerland) at 37°C. The transport activity of P-gp was analyzed by determining the slope of the linear part of the fluorescence-time curve (0–30 min) using linear regression. Normalization of the data to PSC833 (100% inhibition) and DMSO (0% inhibition) was performed.
# T1 sequence (P33302 whole entry): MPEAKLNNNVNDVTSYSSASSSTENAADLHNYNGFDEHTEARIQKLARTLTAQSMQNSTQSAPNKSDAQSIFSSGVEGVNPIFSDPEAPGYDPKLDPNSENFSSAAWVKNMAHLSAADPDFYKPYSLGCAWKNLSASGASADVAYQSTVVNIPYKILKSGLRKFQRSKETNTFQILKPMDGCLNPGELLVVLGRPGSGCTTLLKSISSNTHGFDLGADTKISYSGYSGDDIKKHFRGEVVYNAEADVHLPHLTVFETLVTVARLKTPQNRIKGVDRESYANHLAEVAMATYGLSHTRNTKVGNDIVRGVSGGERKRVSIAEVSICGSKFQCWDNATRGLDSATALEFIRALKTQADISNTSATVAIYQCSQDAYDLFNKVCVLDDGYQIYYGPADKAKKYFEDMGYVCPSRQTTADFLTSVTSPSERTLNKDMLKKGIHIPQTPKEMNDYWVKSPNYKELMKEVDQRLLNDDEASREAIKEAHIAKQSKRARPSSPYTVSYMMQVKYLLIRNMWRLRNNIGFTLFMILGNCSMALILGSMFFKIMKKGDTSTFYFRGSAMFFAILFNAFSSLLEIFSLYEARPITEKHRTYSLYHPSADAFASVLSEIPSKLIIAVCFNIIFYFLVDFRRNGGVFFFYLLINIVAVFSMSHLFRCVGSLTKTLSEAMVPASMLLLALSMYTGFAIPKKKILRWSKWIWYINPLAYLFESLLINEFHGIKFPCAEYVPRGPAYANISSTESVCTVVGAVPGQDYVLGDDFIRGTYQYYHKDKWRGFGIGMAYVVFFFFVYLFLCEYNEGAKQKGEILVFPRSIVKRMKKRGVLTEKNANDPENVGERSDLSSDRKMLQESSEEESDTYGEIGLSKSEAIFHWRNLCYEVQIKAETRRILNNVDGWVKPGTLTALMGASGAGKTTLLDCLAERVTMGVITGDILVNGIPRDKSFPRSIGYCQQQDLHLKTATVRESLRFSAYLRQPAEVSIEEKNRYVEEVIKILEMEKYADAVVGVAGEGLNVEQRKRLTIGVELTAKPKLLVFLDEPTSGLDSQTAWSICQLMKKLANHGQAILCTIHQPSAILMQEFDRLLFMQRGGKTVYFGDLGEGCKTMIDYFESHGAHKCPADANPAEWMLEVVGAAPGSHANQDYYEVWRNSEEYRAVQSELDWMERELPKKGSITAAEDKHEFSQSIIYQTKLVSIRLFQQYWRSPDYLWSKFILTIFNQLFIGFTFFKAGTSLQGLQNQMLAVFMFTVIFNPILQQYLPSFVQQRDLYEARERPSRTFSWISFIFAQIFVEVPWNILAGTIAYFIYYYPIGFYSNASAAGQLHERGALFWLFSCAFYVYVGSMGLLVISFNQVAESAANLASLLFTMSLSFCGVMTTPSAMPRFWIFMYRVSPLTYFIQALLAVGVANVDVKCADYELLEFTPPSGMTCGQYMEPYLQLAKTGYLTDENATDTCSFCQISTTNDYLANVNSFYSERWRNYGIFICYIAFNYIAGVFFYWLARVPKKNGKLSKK
# T3 sequence (P08183 whole entry): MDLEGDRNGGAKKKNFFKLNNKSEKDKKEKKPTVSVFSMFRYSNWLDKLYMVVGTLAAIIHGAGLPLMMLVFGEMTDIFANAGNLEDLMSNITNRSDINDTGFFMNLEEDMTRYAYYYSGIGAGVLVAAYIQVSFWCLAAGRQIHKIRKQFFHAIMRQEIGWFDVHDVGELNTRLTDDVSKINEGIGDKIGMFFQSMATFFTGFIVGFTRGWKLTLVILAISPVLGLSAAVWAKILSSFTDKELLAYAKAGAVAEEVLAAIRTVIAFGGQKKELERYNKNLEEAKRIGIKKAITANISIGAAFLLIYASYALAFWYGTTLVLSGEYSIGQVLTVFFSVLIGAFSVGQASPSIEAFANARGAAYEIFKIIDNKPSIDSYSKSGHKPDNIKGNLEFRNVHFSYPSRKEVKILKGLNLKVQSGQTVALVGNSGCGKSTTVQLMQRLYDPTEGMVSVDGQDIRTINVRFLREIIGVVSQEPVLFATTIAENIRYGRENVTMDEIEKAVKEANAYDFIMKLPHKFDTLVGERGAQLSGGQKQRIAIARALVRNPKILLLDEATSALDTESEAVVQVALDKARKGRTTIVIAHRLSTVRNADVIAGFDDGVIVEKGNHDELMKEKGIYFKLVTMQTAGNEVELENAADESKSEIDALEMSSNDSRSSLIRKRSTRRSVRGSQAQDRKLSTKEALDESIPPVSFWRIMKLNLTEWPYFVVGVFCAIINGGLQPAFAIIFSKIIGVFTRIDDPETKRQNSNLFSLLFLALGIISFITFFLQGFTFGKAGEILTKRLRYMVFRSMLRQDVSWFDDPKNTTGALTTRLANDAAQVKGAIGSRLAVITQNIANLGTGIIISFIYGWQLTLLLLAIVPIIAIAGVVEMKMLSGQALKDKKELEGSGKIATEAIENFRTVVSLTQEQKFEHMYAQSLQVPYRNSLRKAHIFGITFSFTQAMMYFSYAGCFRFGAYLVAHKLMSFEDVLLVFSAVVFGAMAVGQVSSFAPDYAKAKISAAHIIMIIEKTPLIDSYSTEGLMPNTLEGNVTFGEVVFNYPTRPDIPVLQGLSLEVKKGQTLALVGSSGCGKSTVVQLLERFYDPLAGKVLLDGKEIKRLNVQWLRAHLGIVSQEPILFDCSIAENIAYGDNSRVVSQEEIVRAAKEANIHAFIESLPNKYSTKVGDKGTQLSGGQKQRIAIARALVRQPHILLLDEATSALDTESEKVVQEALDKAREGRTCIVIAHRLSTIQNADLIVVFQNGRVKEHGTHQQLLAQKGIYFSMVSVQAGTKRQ
compound,measurement,setting,value
"O=c1oc2c(O)c(O)cc3c(=O)oc4c(O)c(O)cc1c4c23 [Ellagic acid, ellagic acid]",Solubility (in words),[1],low solubility
same,pIC50,HCT-15 cells,< 4.30
same,pIC50,A549 cells,< 4.30
same,ATPase activity of Pdr5 WT inhibited to (initial screen),Pdr5,56%
same,ATPase activity of Pdr5 WT inhibited to (initial screen),Pdr5; listed as ellagic acid,50%
same,pIC50,MCF-7/MX cells,< 4.30
same,Inhibition of BCRP (in words),BCRP,did not display any inhibitory activity
same,pIC50,H69AR cells,< 4.30
same,Inhibition of P-gp (in words),P-gp,did not display any inhibitory activity
